Data published in patent US11466013B2 (Betta Pharmaceuticals Co., LTD, priority 2018, dated 2022).

Experiments:
[1] = test system: HCT 116 cells; assay: Cell proliferation assay (HCT 116), Cell-titer Glo; assay type: cell-based; conditions: Homo sapiens, 120 h incubation
Experimental: (§1) The HCT 116 cells were paved in a 96-well plate at 1200 cells, 160 μL/well. After incubating overnight, the compound solutions of gradient concentration was prepared, and 40 μL of DMSO solution of the test compound of each concentration was added to the cells of each well. The final concentration of the compound was 30000, 10000, 3333.3, 1111.1, 370.4, 123.5, 41.2, 13.7, 4.6, 0 nM (the final concentration of DMSO was 0.5%). 5% CO2 was incubated for 120 h at 37° C. 50 μL of Cell-titer Glo working solution was added to each well, shaked and mixed, and incubated at room temperature for 10 minutes. The multi-functional microplate reader read the luminescence value, and converted the luminescence value reading into inhibition percentage. Inhibition percentage=(maximum value−reading)/(maximum value−minimum value)*100.
The “maximum value” was the DMSO control, the “minimum value” indicated the cell-free control group.
(§2) Graphpad Prism software was used to perform curve fitting and obtain IC50 value.

[2] = test system: COLO205 cells; assay: Cell proliferation assay (COLO205), Cell-titer Glo; assay type: cell-based; conditions: Homo sapiens, COLO 205, 120 h incubation
Experimental: as §1, with “COLO205” for “The HCT 116”, “spread into” for “paved in”, “135 μL/well at 2000 cells.” for “1200 cells, 160 μL/well.”, “overnight,” for “overnight, the”, “added 15” for “40”, “concentration” for “concentration was added”
The “maximum value” was the DMSO control, the “minimum value” indicates the cell-free control group.
as §2

[3] = biological target: ERK2 (Homo sapiens, UniProt P28482); assay: Kinase assay (Caliper, FAM-labeled peptide), ERK2; assay type: biochemical
Chain of ERK2 (P28482 whole entry): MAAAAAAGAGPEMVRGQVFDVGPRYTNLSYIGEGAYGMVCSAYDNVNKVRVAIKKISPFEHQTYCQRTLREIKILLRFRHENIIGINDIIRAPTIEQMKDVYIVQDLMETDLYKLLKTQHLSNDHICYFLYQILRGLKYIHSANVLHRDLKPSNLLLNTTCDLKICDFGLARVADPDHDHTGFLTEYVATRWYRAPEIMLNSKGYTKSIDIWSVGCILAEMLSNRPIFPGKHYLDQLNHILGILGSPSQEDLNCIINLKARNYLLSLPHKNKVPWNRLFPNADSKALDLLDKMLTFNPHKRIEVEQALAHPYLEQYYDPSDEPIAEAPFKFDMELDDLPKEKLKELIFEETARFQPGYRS
How it was run: (§3)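 Kinase preincubated 10 min at room temperature with serially diluted compound before FAM-labeled peptide plus ATP added; reaction run at 28 °C, then stopped. Substrate conversion read by Caliper mobility shift, normalized to DMSO and low controls, curve-fitted for IC50.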

[4] = biological target: ERK1 (Homo sapiens, UniProt P27361); assay: Kinase assay (Caliper, FAM-labeled peptide), ERK1; assay type: biochemical
Chain of ERK1 (P27361 whole entry): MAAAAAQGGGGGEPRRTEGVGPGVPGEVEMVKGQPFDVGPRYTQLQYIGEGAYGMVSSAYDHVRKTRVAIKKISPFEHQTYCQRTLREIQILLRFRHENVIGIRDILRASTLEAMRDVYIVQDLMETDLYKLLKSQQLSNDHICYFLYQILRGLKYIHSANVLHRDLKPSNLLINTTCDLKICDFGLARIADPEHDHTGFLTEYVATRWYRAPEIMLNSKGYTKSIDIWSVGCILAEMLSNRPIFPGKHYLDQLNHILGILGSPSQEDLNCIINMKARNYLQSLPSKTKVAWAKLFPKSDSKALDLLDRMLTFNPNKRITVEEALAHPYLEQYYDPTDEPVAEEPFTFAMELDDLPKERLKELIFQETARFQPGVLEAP
How it was run: as §3

Row | Structure (SMILES) | IC50 [1] | IC50 [2] | IC50 [3] | IC50 [4]
1 | COC[C@H]1Cn2cc(-c3nc(Nc4ccnn4C)ncc3C)nc2C(=O)N1Cc1ccc(F)c(F)c1 [AZD0364, reference compound] | 83 nM | 72.4 nM | – | –
2 | CC(C)Nc1cc(-c2cc3n(c2)CCN(Cc2cc(F)ccc2CO)C3=O)c(Cl)cn1 [Example 18, 7-(5-chloro-2-(isopropylamino)pyridin-4-yl)-2-(5-fluoro-2-(hydroxymethyl)benzyl)-3,4-dihydropyrrolo[1,2-a]pyrazine-1(2H)-one] | – | 56.6 nM | 0.49 nM | 0.4 nM
3 | CC(C)Nc1cc(-c2cc3n(c2)CC(O)CN(Cc2cc(F)ccc2CO)C3=O)c(Cl)cn1 (stereo not drawn) [Example 20, 8-(5-chloro-2-(isopropylamino)pyridin-4-yl)-2-(5-fluoro-2-(hydroxymethyl)benzyl)-4-hydroxy-2,3,4,5-tetrahydro-1h-pyrrolo [1,2-a][1,4]diazepine-1-one] | – | 76.7 nM | 0.56 nM | 0.34 nM
4 | CC(C)Nc1cc(-c2cc3n(c2)CCCN(Cc2cc(F)c(F)cc2CO)C3=O)c(Cl)cn1 [Example 21, 8-(5-chloro-2-(isopropylamino)pyridin-4-yl)-2-(4,5-difluoro-2-(hydroxymethyl)benzyl)-2,3,4,5-tetrahydro-1h-pyrrolo[1,2-a][1,4] diazepine-1-one] | – | 73.3 nM | 0.76 nM | 0.73 nM
5 | Cc1cnc(Nc2ccnn2C)nc1-c1c[nH]c(C(=O)NCc2cc(F)ccc2CO)c1 [Example 22, N-(5-fluoro-2-(hydroxymethyl)benzyl)-4-(5-methyl-2-((1-methyl-1H-pyrazol-5-yl)amino)pyrimidin-4-yl)-1H-pyrrole-2-carboxamide] | – | 35.3 nM | 0.34 nM | 0.43 nM
6 | Cc1cnc(Nc2ccnn2C)nc1-c1cc2n(c1)CCN(Cc1cc(F)ccc1CO)C2=O [Example 23, 2-(5-Fluoro-2-(hydroxymethyl)benzyl)-7-(5-methyl-2-((1-methyl-1H-pyrazol-5-yl)amino)pyrimidin-4-yl)-3,4-dihydropyrrolo[1,2-a]pyrazine-1(2H)-one] | – | 18.7 nM | 0.48 nM | 0.42 nM
7 | CC(C)Nc1cc(-c2cc3n(c2)CC2(CNC2)CN(Cc2ccccc2CO)C3=O)c(Cl)cn1 [Example 24, 8′-(5-Chloro-2-(isopropylamino)pyridin-4-yl)-2′-(2-(hydroxymethyl)benzyl)-2′,3′-dihydro-1′H,5′H-spiro[azetidine-3,4′-pyrrolo[1,2-a][1,4]diazepine]-1′-one] | – | 50 nM | 0.53 nM | 0.65 nM
8 | CC(C)Nc1cc(-c2cc3n(c2)CC(CO)(CO)CN(Cc2ccccc2CO)C3=O)c(Cl)cn1 [Example 27] | – | 9.6 nM | 0.59 nM | 0.96 nM
9 | Cc1cnc(NC2CCOC2)nc1-c1cc2n(c1)CCN(Cc1cc(F)ccc1CO)C2=O (stereo not drawn) [Example 33, 2-(5-fluoro-2-(hydroxymethyl)benzyl)-7-(5-methyl-2-((tetrahydrofuran-3-yl)amino)pyrimidin-4-yl)-3,4-dihydropyrrolo[1,2-a]pyrazine-1(2H)-one] | – | 76 nM | 0.4 nM | 0.45 nM
10 | CCn1nccc1Nc1cc(-c2cc3n(c2)C[C@H](COC)N(Cc2cc(F)ccc2CO)C3=O)c(Cl)cn1 [Example 52, (R)-7-(5-chloro-2-((1-ethyl-1H-pyrazol-5-yl)amino)pyridin-4-yl)-2-(5-fluoro-2-(hydroxymethyl)benzyl)-3-(methoxymethyl)-3,4-dihydropyrrolo[1,2-a]pyrazine-1(2H)-one] | 10.7 nM | 13.6 nM | – | –
11 | COC[C@H]1Cn2cc(-c3cc(Nc4ccnn4C(F)F)ncc3Cl)cc2C(=O)N1Cc1cc(F)ccc1CO [Example 54, (R)-7-(5-chloro-2-((1-(difluoromethyl)-1H-pyrazol-5-yl)amino)pyridin-4-yl)-2-(5-fluoro-2-(hydroxymethyl)benzyl)-3-(methoxymethyl)-3,4-dihydropyrrolo[1,2-a]pyrazine-1(2H)-ketone] | 16.2 nM | – | – | –

The next lines start with the values.

Row | IC50 [1] | IC50 [2] | IC50 [3] | IC50 [4] | Structure (SMILES)
12 | 27 nM | – | 1.4 nM | 1.1 nM | COC[C@H]1Cn2cc(-c3cc(N[C@H]4CC[C@H](O)CC4)ncc3Cl)cc2C(=O)N1Cc1cc(F)ccc1CO [Example 71, (R)-7-(5-chloro-2-(((1R,4R)-4-hydroxycyclohexyl)amino)pyridine-4-yl)-2-(5-fluoro-2-(hydroxymethyl)benzyl)-3-(methoxymethyl)-3,4-dihydropyrrolo[1,2-a] pyrazine-1(2H)-one]
13 | 23 nM | – | – | – | COC[C@H]1Cn2cc(-c3cc(Nc4conc4C)ncc3Cl)cc2C(=O)N1Cc1cc(F)ccc1CO [Example 83, (R)-7-(5-chloro-2-((3-methylisoxazole-4-yl)amino)pyridine-4-yl)-2-(5-fluoro-2-(hydroxymethyl)benzyl)-3-(methoxymethyl)-3,4-dihydropyrrolo[1,2-a] pyrazine-1(2H)-one]
14 | – | 29.4 nM | 0.8 nM | 0.91 nM | COC[C@H]1Cn2cc(-c3cc(Nc4ccn(C)n4)ncc3Cl)cc2C(=O)N1Cc1cc(F)ccc1CO [Example 86, (R)-7-(5-chloro-2-((1-methyl-1h-pyrazole-3-yl)amino)pyridine-4-yl)-2-(5-fluoro-2-(hydroxymethyl)benzyl)-3-(methoxymethyl)-3,4-dihydropyrrolo[1,2-a] pyrazine-1(2H)-one]
15 | 9 nM | 10.7 nM | – | – | COC[C@H]1Cn2cc(-c3cc(Nc4ccnn4C)ncc3Cl)cc2C(=O)N1Cc1cccc(F)c1CO [Example 98, (R)-7-(5-chloro-2-((1-methyl-1h-pyrazole-5-yl)amino)pyridine-4-yl)-2-(3-fluoro-2-(hydroxymethyl)benzyl)-3-(methoxymethyl)-3,4-dihydropyrrolo[1,2-a] pyrazine-1(2H)-one]
16 | – | 16.7 nM | 1.2 nM | 1.6 nM | COC[C@H]1Cn2cc(-c3cc(Nc4ccnn4CC(F)F)ncc3Cl)cc2C(=O)N1Cc1cc(F)ccc1CO [Example 115, (R)-7-(5-chloro-2-((1-(2,2-difluoroethyl)-1h-pyrazole-5-yl)amino)pyridine-4-yl)-2-(5-fluoro-2-(hydroxymethyl)benzyl)-3-(methoxymethyl)-3,4-dihydropyrrolo[1,2-a] pyrazine-1(2H)-one]
17 | 21.2 nM | – | – | – | Cn1nccc1Nc1cc(-c2cc3n(c2)CCN(Cc2ccc(F)cc2CO)C3=O)c(Cl)cn1 [Example 149, 7-(5-chloro-2-((1-methyl-1h-pyrazole-5-yl)amino)pyridine-4-yl)-2-(4-fluoro-2-(hydroxymethyl)benzyl)-3,4-dihydropyrrolo[1,2-a] pyrazine-1(2H)-one]
18 | 24.6 nM | – | – | – | Cn1nccc1Nc1cc(-c2cc3n(c2)CCN(Cc2cc(F)ccc2CO)C3=O)c(C(F)(F)F)cn1 [Example 161, (5-fluoro-2-(hydroxylmethyl)benzyl)-7-(2-((1-methyl-1h-pyrazole-5-yl)amino)-5-(trifluoromethyl)pyridin-4-yl)-3,4-dihydropyrrolo [1,2-a]pyrazine-1(2H)-one]
19 | – | > 10000 nM | 26 nM | 44 nM | CC(C)Nc1cc(-c2c[nH]c(C(=O)NCc3cccc(F)c3)c2)c(Cl)cn1 [Example D6, 4-(5-chloro-2-(isopropylamino)pyridine-4-yl)-N-(3-fluorobenzyl)-1h-pyrrole-2-formamide, reference compound]
20 | – | > 10000 nM | > 300 nM | > 300 nM | CC(C)Nc1cc(-c2cc3n(c2)CC(CO)CN(Cc2cccc(Cl)c2)C3=O)c(Cl)cn1 (stereo not drawn) [Example D7, 8-(5-chloro-2-(isopropylamino)pyridin-4-yl)-2-(3-chlorophenylmethyl)-4-(hydroxymethyl)-2,3,4,5-tetrahydro-1h-pyrrolo [1,2-a][1,4]diazepine-1-one, reference compound]
21 | 53.6 nM | – | – | – | Cn1nccc1Nc1cc(-c2cc3n(c2)CCN(Cc2cccc(F)c2)C3=O)c(Cl)cn1 [Example D9, 7-(5-chloro-2-((1-methyl-1h-pyrazole-5-yl)amino)pyridine-4-yl)-2-(3-fluorobenzyl)-3,4-dihydropyrrolo[1,2-a] pyrazine-1(2H)-one, reference compound]
22 | 52.3 nM | – | – | – | Cn1nccc1Nc1cc(-c2cc3n(c2)CCN(Cc2cc(F)cc(F)c2)C3=O)c(Cl)cn1 [Example D10, 7-(5-chloro-2-((1-methyl-1h-pyrazole-5-yl)amino)pyridine-4-yl)-2-(3,5-difluorobenzyl)-3,4-dihydropyrrolo[1,2-a] pyrazine-1(2H)-one, reference compound]
